According to patent publication US12214079B2, “Micronized lipids” (MCAL Therapeutics Inc., priority 2021, dated 2025):
Values after ≈ are worked out from the molar mass of the structure shown. “Also recorded” adds a separate entry of the source. Like-named read-outs stand apart in the source and are kept apart here.

What was measured:
[1] = General and physiochemical properties of MCAL-201 (solubility, hygroscopicity); assay type: physicochemical
Description: The general and physiochemical properties of MCAL-201 are: • 1,2-EPRG has a molecular weight of 611.05 g/mol • Empirical formula: C39H78O4 • Appearance: White powder • Particle size: 1-10 μm (post micronization) • Hygroscopicity: Low • Chirality: Racemic • Enantiomeric excess: 0 • Melting point: 57° C. • Solubility: Insoluble in water. Soluble in chloroform (40 mg/mL) and castor • oil (25 mg/mL)
However, preparation of a water soluble cyclodextrin inclusion complex of MCAL-201 was used in nonclinical efficacy studies. In addition, solutions of MCAL-201 in castor oil which can be emulsified to micron sized liquid particles in aqueous buffers can be used to deliver MCAL-201 directly to the tear film lipid layer.

[2] = Isomeric stability (1,2-EPRG to 1,3-EPRG acyl migration), NMR analysis of isomeric content; assay type: physicochemical
Description: FIG. 4 provides NMR (nuclear magnetic resonance) spectral analysis of 1,3-EPRG and 1,2-EPRG isomeric content (1.15 mol % 1,3-EPRG) of MCAL-201 after jet mill micronization.
FIG. 5 provides NMR (nuclear magnetic resonance) spectral analysis of 1,3-EPRG and 1,2-EPRG isomeric content (0.0991 mol % 1,3-EPRG) of MCAL-201 after solid micronized MCAL-201suspension is stored at room temperature for 6 weeks.
This led to development of the delivery of solid MCAL-201 as a suspension of crystalline or amorphous micronized solid particle suspended in a water-based formulation isotonic with tear. Although MCAL-201 crystalline drug substance floated on phosphate buffered saline (PBS) it could be suspended following micronization to 1-10 micron particles which could be stably suspended in PBS with the aid of polysorbate 80 as a wetting agent and xanthan gum to adjust density and viscosity of the drug product.

naive dogs = assay: Non-GLP topical ocular dose range-finding toxicity and tolerability study (SPOTS scoring); assay type: in vivo; details: up to 10 mg/mL OU BID for 48 hours
Description: A non-GLP topical ocular administration dose range-finding pharmacology and toxicity study of MCAL-201 was conducted in naive dogs. The primary study objective was to assess the tolerability of topical ocular administration of MCAL-201 in dogs with a secondary objective to obtain data supporting pharmacological activity in healthy dogs.
The effects of vehicle and 0.1, 0.5, 1, 3 and 10 mg/mL MCAL-201 delivered as a 35 μL drop bilaterally QD (0.0035, 0.0175, 0.035, 0.105 and 0.35 mg/eye/day) were evaluated in Part I. The dosing regimen is summarized in 3.
(§1) Scoring of the ocular surface and anterior segment of the eye was performed using the SPOTS system by a board-certified veterinary ophthalmologist. SPOTS was performed for each concentration evaluated. To measure TBUT, fluorescein was instilled in the eye and the eye was manually closed and then gently opened to simulate a blink. The time interval between the opening of the eye and the first sign of disruption of the uniform tear film, as indicated by breaks in the fluorescein was recorded in seconds. The procedure was repeated three times on both eyes, first right than left eye. After BID dosing with 10 mg/mL MCAL-201, SPOTS was also performed at 48 hours after the last dose.

healthy dogs = assay: Tear film break-up time (TBUT) by fluorescein after topical ocular administration; assay type: in vivo, dog; details: 5 healthy adult dogs
Description: as §1

Question: What does the source list for `CCCCCCCCCCCCCCCCCCCCOCC(CO)OC(=O)CCCCCCCCCCCCCCC` (racemic) [MCAL-201, 1-O-eicosanyl-2-palmitoyl-rac-glycerol]?
Answer: Hygroscopicity [1]: Low; solubility ([1]; castor oil, oil or lipid, read-out: Solubility in castor oil): 25 mg/mL (≈ 40.9 mM); solubility ([1]; chloroform, organic solvent or mixture, read-out: Solubility in chloroform): 40 mg/mL (≈ 65.5 mM); Solubility in water ([1]; water): Insoluble; also recorded: extreme insolubility; 1,3-EPRG isomeric content (NMR) ([2]; after jet mill micronization): 1.15 mol %; Chemical stability (acyl migration of palmitoyl from 2 to 3 position) ([2]; liquid solution phase): lacked long-term chemical stability; Time for which isomeric stability was demonstrated ([2]; micronized, in the suspension formulation at room temperature): 6 weeks; Stability to the micronization process ([2]; particles recovered from formulated drug by centrifugation and washing): chemical and isomeric stability; 1,3-EPRG isomeric content (NMR) ([2]; solid micronized suspension stored at room temperature for 6 weeks): 0.0991 mol %; Isomeric stability ([2]; solid phase, compared with solution): far greater than in solution; Ocular or systemic adverse events (naive dogs; any time or concentration evaluated): no ocular or systemic adverse events; Tolerability (naive dogs; topical ocular 35 μL drop): well tolerated; Effect on TBUT (healthy dogs): extended TBUT
